US10710993B2, “Benzofuran pyrazole amine kinase inhibitor” (Hangzhou REX Pharmaceutical Co., LTD., priority 2016, dated 2020)

Key:
[1] = biological target: T1, Wild-Type ALK (Homo sapiens, UniProt Q9UM73); experiment: Z'-LYTE (FRET) ALK kinase inhibitory activity; type: biochemical
T1 construct: purchased Life Technology
Description: (§1) The kinase activity assay was determined by using kinase assay panel (Life Technology) and the result was in table 1.

[2] = biological target: T2, ALK L1196M (Homo sapiens, UniProt Q9UM73, L1196M); experiment: LanthaScreen Eu Kinase Binding Assay (TR-FRET) on ALK mutant
T2 construct: purchased Life Technology
T2 sequence (Q9UM73 19-1620 L1196M): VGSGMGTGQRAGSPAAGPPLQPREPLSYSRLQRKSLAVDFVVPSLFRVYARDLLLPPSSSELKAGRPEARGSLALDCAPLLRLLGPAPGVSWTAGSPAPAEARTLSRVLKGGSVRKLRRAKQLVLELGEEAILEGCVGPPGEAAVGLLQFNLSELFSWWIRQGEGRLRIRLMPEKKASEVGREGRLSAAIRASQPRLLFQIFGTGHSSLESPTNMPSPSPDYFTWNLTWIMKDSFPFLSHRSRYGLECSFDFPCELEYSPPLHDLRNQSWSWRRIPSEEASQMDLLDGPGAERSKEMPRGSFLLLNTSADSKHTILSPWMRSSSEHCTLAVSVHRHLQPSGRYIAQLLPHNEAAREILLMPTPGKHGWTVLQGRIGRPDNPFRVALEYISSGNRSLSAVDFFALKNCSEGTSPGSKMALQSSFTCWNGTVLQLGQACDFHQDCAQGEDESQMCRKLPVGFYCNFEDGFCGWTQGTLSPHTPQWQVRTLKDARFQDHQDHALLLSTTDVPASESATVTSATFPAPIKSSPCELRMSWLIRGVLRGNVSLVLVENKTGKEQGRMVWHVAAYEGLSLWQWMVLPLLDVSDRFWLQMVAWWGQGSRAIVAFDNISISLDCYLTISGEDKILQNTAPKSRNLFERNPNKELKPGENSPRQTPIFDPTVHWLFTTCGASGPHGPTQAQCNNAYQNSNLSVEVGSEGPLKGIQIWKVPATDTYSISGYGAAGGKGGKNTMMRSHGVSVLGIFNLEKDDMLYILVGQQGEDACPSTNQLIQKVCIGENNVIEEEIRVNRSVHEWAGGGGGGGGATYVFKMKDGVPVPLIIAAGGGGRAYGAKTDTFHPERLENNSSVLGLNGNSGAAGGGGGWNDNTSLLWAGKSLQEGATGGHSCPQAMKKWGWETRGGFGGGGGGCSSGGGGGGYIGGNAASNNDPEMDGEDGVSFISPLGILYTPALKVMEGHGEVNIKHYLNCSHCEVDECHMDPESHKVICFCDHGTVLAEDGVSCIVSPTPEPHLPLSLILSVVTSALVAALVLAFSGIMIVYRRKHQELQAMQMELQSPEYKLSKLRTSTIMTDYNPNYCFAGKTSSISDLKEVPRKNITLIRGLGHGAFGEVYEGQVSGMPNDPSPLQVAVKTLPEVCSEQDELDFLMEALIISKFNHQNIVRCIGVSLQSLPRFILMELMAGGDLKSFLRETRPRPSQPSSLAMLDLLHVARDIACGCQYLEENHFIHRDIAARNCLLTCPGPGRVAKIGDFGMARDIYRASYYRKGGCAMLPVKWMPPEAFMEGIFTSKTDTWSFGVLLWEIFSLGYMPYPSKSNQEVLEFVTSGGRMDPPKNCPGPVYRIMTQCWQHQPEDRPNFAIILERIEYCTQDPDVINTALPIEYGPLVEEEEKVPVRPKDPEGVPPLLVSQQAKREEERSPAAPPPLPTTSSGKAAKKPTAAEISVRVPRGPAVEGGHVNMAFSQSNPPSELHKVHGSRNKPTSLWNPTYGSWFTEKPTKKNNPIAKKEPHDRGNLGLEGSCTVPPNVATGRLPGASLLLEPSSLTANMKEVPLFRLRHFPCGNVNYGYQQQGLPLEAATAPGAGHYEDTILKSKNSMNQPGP
Source text: Meanwhile, The LanthaScreen® Eu Kinase Binging Assay (TR-FRET) method was used for determining ALK Mutants (such as ALK L1196M) inhibitory activity IC50. LanthaScreen Eu kinase binding experiment detected Alexa Fluor conjugate or kinase “tracer” binding by adding Eu labeled antibodies or anti-label antibodies. The combination of tracer and antibody with kinase leads to a high level of FRET, whereas the use of kinase inhibitors in place of tracer may cause FRET loss.
as §1

[3] = biological target: T3, TEL-ALK-F1174L-BaF3 (Homo sapiens, UniProt Q9UM73, F1174L, cells depend on it); experiment: Cell proliferation experiment (Cell-Titer GLO), TEL-ALK-F1174L-BaF3; type: cell-based; conditions: 72 h, read-out: IC50 TEL-ALK F1174L-BaF3
T3 construct: fused on or other part: TEL (ETV6) N-terminal oligomerising part fused before the ALK intracellular/kinase part; P41212 (Transcription factor ETV6)
T3 sequence (Q9UM73 whole entry F1174L, the tested form may be a part): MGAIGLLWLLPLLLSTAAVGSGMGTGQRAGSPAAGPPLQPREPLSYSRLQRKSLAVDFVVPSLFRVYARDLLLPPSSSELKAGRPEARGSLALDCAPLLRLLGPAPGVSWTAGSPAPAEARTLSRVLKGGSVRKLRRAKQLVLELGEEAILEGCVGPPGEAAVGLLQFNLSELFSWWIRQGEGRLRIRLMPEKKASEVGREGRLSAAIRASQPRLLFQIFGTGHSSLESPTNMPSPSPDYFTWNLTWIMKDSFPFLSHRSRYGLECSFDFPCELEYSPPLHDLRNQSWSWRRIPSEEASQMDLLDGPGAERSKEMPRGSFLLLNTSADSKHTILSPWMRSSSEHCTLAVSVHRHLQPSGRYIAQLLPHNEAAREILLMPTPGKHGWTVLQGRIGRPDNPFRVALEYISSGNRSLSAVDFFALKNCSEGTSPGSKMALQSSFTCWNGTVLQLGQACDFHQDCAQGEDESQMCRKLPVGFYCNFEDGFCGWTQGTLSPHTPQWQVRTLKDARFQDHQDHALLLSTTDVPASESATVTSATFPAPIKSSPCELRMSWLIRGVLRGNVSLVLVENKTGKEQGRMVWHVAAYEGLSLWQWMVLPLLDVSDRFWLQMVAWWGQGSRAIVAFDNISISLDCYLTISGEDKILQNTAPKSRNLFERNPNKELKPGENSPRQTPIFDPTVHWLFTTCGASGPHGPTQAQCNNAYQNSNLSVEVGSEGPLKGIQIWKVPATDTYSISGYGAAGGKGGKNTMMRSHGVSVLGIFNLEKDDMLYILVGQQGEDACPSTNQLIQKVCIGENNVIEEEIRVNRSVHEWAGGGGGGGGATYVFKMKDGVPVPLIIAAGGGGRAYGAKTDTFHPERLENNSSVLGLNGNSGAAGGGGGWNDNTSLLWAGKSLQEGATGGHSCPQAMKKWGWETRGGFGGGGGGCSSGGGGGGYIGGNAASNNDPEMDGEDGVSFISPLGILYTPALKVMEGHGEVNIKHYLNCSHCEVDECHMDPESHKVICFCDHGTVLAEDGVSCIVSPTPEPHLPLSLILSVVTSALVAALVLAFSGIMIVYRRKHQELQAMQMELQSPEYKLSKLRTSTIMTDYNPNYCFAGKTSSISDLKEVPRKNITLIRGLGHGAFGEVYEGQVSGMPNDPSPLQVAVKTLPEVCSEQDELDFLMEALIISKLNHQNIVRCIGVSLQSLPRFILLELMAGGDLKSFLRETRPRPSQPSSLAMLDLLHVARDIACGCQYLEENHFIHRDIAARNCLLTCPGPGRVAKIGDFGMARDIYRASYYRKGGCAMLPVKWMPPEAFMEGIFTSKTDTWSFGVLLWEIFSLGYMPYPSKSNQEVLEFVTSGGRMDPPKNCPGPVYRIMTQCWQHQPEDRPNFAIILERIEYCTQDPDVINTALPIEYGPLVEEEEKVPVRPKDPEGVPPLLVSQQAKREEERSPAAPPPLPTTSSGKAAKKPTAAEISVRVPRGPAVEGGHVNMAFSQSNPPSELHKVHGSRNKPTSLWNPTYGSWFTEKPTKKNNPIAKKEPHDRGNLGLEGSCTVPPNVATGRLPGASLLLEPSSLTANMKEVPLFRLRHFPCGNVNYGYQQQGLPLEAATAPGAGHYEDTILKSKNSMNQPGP
Description: (§2) Compounds to be tested: Positive compound Ceritinib and the compounds obtained by the examples of the present invention.
(§3) Cell lines: Karpas-299 and NCI-H3122 which were purchased from the Nanjing kebai biotechnology Co. LTD; TEL-ALK-F1174L-BaF3, TEL-ALK-G1202R-BaF3, TEL-ALK-C1156Y-BaF3 and TEL-ALK-L1196M-BaF3 which were purchased from Hefei zhongkopruisheng biological medicine technology Co. LTD.
(§4) Method: Cells were seeded in 96-well plates for 24 h in growth media containing 10% fetalbovine serum (FBS) and cultured overnight at 37° C. The following day, serial dilutions of compounds or appropriate control were added to the designated wells, and cells were incubated at 37° C. for 72 h. A Cell Titer Glo assay (Promega) was then performed to determine the relative cell numbers. IC50 values were calculated by concentration-response curve fitting using a four-parameter analytical method with Graphpad 6.0. Drug inhibition rate (%)=100%−[OD(Compound)−OD(blank)]/[OD(vehicle)−OD(blank)]×100% Equation: […]

[4] = biological target: T4, TEL-ALK-G1202R-BaF3 (Homo sapiens, UniProt Q9UM73, G1202R, cells depend on it); experiment: Cell proliferation experiment (Cell-Titer GLO), TEL-ALK-G1202R-BaF3; type: cell-based; conditions: 72 h, read-out: IC50 TEL-ALK G1202R-BaF3
T4 construct: fused on or other part: TEL (ETV6) N-terminal oligomerising part fused before the ALK intracellular/kinase part; P41212 (Transcription factor ETV6)
T4 sequence (Q9UM73 whole entry G1202R, the tested form may be a part): as the sequence (Q9UM73 whole entry F1174L, the tested form may be a part) above, with L1174F, G1202R counted along it
Description: as §2, §3, §4

[5] = test system: NCI-H3122; experiment: Cell proliferation experiment (Cell-Titer GLO), NCI-H3122; type: cell-based; conditions: Homo sapiens, 72 h
Description: as §2, §3, §4

T1 sequence (Q9UM73 19-1620): as the sequence (Q9UM73 19-1620 L1196M) above, with M1178L counted along it

Row | IC50 [1] | IC50 [2] | GI50 [3] | GI50 [4] | IC50 [5] | Compound
1 | 13.9 nM | 1.99 nM | 80.4 nM | > 180 nM | 40.3 nM | Cc1cc(Nc2ncc(Cl)c(Nc3cn(C(C)C)nc3S(=O)(=O)C(C)C)n2)c2c(c1C1CCN(C)CC1)C[C@@H](C)O2 [REX-D35, (R)-5-chloro-N^2-(2,5-dimethyl-4-(1-methylpiperidin-4-yl)-2,3-dihydrobenzofuran-7-yl)-N^4-(1-isopropyl-3-(isopropylsulfonyl)-1H-pyrazol-4-yl)pyrimidine-2,4-diamine]
2 | 9.21 nM | 1.07 nM | 11.6 nM | > 180 nM | 10.7 nM | CC(=O)N1CCC(c2c(C)cc(Nc3ncc(Cl)c(Nc4cn(C)nc4S(=O)(=O)C(C)C)n3)c3c2C[C@@H](C)O3)CC1 [REX-D12, (R)-1-(4-(7-((5-chloro-4-((3-(isopropylsulfonyl)-1-methyl-1H-pyrazol-4-yl)amino)pyrimidin-2-yl)amino)-2,5-dimethyl-2,3-dihydrobenzofuran-4-yl)piperidin-1-yl)ethanone]
3 | – | – | 23.7 nM | > 180 nM | – | Cc1cc(Nc2ncc(Cl)c(Nc3cn(C4CC4)nc3S(=O)(=O)CC(C)C)n2)c2c(c1C1CCN(C)CC1)C[C@@H](C)O2 [REX-D41, (R)-5-chloro-N^4-(1-cyclopropyl-3-(isobutylsulfonyl)-1H-pyrazol-4-yl)-N^2-(2,5-dimethyl-4-(1-methylpiperidin-4-yl)-2,3-dihydrobenzofuran-7-yl)pyrimidine-2,4-diamine]
4 | – | – | 11.1 nM | > 180 nM | – | Cc1cc(Nc2ncc(Cl)c(Nc3cn(C)nc3S(=O)(=O)C(C)C)n2)c2c(c1C1CCN(C)CC1)CCC(C)O2 (centres unmarked) [REX-D25, 5-chloro-N^2-(2,6-dimethyl-5-(1-methylpiperidin-4-yl)chroman-8-yl)-N^4-(3-(isopropylsulfonyl)-1-methyl-1H-pyrazol-4-yl)pyrimidine-2,4-diamine]
5 | – | – | < 10 nM | > 180 nM | – | Cc1cc(Nc2ncc(Cl)c(Nc3cn(C)nc3S(=O)(=O)CC(C)C)n2)c2c(c1C1CCN(C)CC1)C[C@@H](C)O2 [REX-D38, (R)-5-chloro-N^2-(2,5-dimethyl-4-(1-methylpiperidin-4-yl)-2,3-dihydrobenzofuran-7-yl)-N^4-(3-(isobutylsulfonyl)-1-methyl-1H-pyrazol-4-yl)pyrimidine-2,4-diamine]
6 | – | – | < 10 nM | > 180 nM | – | CC(C)S(=O)(=O)c1nn(C)cc1Nc1nc(Nc2cc(F)c(C3CCN(C)CC3)c3c2O[C@H](C)C3)ncc1Cl [REX-D24, (R)-5-chloro-N^2-(5-fluoro-2-methyl-4-(1-methylpiperidin-4-yl)-2,3-dihydrobenzofuran-7-yl)-N^4-(3-(isopropylsulfonyl)-1-methyl-1H-pyrazol-4-yl)pyrimidine-2,4-diamine]

Continued, compound first:

Row | Compound | IC50 [1] | IC50 [2] | GI50 [3] | GI50 [4] | IC50 [5]
7 | CCn1cc(Nc2nc(Nc3cc(C)c(C4CCNCC4)c4c3O[C@H](C)C4)ncc2Cl)c(S(=O)(=O)C(C)C)n1 [REX-D33, (R)-5-chloro-N^2-(2,5-dimethyl-4-(piperidin-4-yl)-2,3-dihydrobenzofuran-7-yl)-N^4-(1-ethyl-3-(isopropylsulfonyl)-1H-pyrazol-4-yl)pyrimidine-2,4-diamine] | 15.5 nM | 2 nM | 33.4 nM | > 180 nM | 11.7 nM
8 | Cc1cc(Nc2ncc(Cl)c(Nc3cn(C)nc3S(=O)(=O)C(C)C)n2)c2c(c1C1CCN(C3CCNCC3)CC1)C[C@@H](C)O2 [REX-D13, (R)—N^2-(4-([1,4′-bipiperidin]-4-yl)-2,5-dimethyl-2,3-dihydrobenzofuran-7-yl)-5-chloro-N^4-(3-(isopropylsulfonyl)-1-methyl-1H-pyrazol-4-yl)pyrimidine-2,4-diamine] | 18.8 nM | 1.02 nM | 94.3 nM | > 180 nM | 33.7 nM
9 | CC(C)S(=O)(=O)c1nn(C)cc1Nc1nc(Nc2cc(F)c(C3CCNCC3)c3c2O[C@H](C)C3)ncc1Cl [REX-D21, (R)-5-chloro-N^2-(5-fluoro-2-methyl-4-(piperidin-4-yl)-2,3-dihydrobenzofuran-7-yl)-N^4-(3-(isopropylsulfonyl)-1-methyl-1H-pyrazol-4-yl)pyrimidine-2,4-diamine] | – | – | 17.8 nM | > 180 nM | –
10 | Cc1cc(Nc2ncc(Cl)c(Nc3cn(C4CC4)nc3S(=O)(=O)CC(C)C)n2)c2c(c1C1CCNCC1)C[C@@H](C)O2 [REX-D40, (R)-5-chloro-N^4-(1-cyclopropyl-3-(isobutylsulfonyl)-1H-pyrazol-4-yl)-N^2-(2,5-dimethyl-4-(piperidin-4-yl)-2,3-dihydrobenzofuran-7-yl)pyrimidine-2,4-diamine] | – | – | 94.8 nM | > 180 nM | –
11 | Cc1cc(Nc2ncc(Cl)c(Nc3cn(C)nc3S(=O)(=O)C(C)C)n2)c2c(c1C1CCNCC1)CCC(C)O2 (centres unmarked) [REX-D22, 5-chloro-N^2-(2,6-dimethyl-5-(piperidin-4-yl)chroman-8-yl)-N^4-(3-(isopropylsulfonyl)-1-methyl-1H-pyrazol-4-yl)pyrimidine-2,4-diamine] | – | – | 32.6 nM | > 180 nM | –
12 | Cc1cc(Nc2nc(Nc3cn(C)nc3S(=O)(=O)C(C)C)c3sccc3n2)c2c(c1C1CCNCC1)C[C@@H](C)O2 [REX-D29, (R)—N^2-(2,5-dimethyl-4-(piperidin-4-yl)-2,3-dihydrobenzofuran-7-yl)-N^4-(3-(isopropylsulfonyl)-1-methyl-1H-pyrazol-4-yl)thieno[3,2-d]pyrimidine-2,4-diamine] | – | – | > 500 nM | > 180 nM | –
13 | Cc1cc(Nc2ncc(Cl)c(Nc3cn(C)nc3S(=O)(=O)CC(C)C)n2)c2c(c1C1CCN(CCO)CC1)C[C@@H](C)O2 [REX-D39, (R)-2-(4-(7-((5-chloro-4-((3-(isobutylsulfonyl)-1-methyl-1H-pyrazol-4-yl)amino)pyrimidin-2-yl)amino)-2,5-dimethyl-2,3-dihydrobenzofuran-4-yl)piperidin-1-yl)ethanol] | – | – | < 10 nM | > 180 nM | –
14 | Cc1cc(Nc2nc(Nc3cn(C)nc3S(=O)(=O)C(C)C)c3sccc3n2)c2c(c1C1CCN(C)CC1)C[C@@H](C)O2 [REX-D30, (R)—N^2-(2,5-dimethyl-4-(1-methylpiperidin-4-yl)-2,3-dihydrobenzofuran-7-yl)-N^4-(3-(isopropylsulfonyl)-1-methyl-1H-pyrazol-4-yl)thieno[3,2-d]pyrimidine-2,4-diamine] | – | – | > 500 nM | > 180 nM | –
15 | CC(C)S(=O)(=O)c1nn(C)cc1Nc1nc(Nc2cc(F)c(C3CCN(C)CC3)c3c2O[C@H](C)C3)ncc1C(F)(F)F [REX-D8, (R)—N^2-(5-fluoro-2-methyl-4-(1-methylpiperidin-4-yl)-2,3-dihydrobenzofuran-7-yl)-N^4-(3-(isopropylsulfonyl)-1-methyl-1H-pyrazol-4-yl)-5-(trifluoromethyl)pyrimidine-2,4-diamine] | – | – | 11.4 nM | > 180 nM | –
16 | Cc1cc(Nc2ncc(Cl)c(Nc3cn(C)nc3S(=O)(=O)CC(C)C)n2)c2c(c1C1CCNCC1)C[C@@H](C)O2 [REX-D37, (R)-5-chloro-N^2-(2,5-dimethyl-4-(piperidin-4-yl)-2,3-dihydrobenzofuran-7-yl)-N^4-(3-(isobutylsulfonyl)-1-methyl-1H-pyrazol-4-yl)pyrimidine-2,4-diamine] | – | – | 58.7 nM | > 180 nM | –
